Legend:
Type in all cases: cell-based, human
[1] = system: cytokine secretion of VSAs; assay: VSA cytokine assay (ELISA of supernatant)
Method: (§1) Experimental: (1) Fabrication of VSA high throughput culture systems: large-scale VSA high throughput culture systems were achieved by fabricating individual VSAs in each well of the 48-well tissue culture plate, following the same method described in Example 4 (FIG. 7A, step 1). (2) Divide the VSAs into two groups. (3) Treatment of VSAs in one group with rosuvastatin (10 uM) or sirolimus (10 nM) by dilution of the stock solution into the culture medium 7 on day 0 (FIG. 7B, step 2). (4) The VSAs, treated or untreated, were culturing in culture medium 7 for 10 days. A fresh culture medium 7 was added to the co-culture system on day 3 and day 7, respectively. (5) ELISA: On day 10, the supernatant from VSAs was collected for ELISA to measure the significant inflammatory cytokine secretion.
as §1, with “systems: the” for “systems:”, “system was” for “systems were”, “curcumin (200” for “rosuvastatin (10”, “colchicine (100” for “sirolimus (10”, “cultured using” for “culturing in”, “measure” for “measure the significant”
as §1, with “systems: the” for “systems:”, “system was” for “systems were”, “free miR-146a (600 nM)” for “rosuvastatin (10 uM)”, “Lip-miR-146a (600” for “sirolimus (10”, “co-cultured” for “culturing in culture medium 7”, “Afresh” for “A fresh”

[2] = system: foam cell formation on the VSA; assay: VSA foam cell assay (BODIPY staining); conditions: for foam cell generation (BODIPY): day 10, vs. control; for foam cell formation (BODIPY): day 10, vs. control 100%
Method: Experimental: (1) Fabrication of large-scale VSA high throughput culture systems: Individual VSAs were fabricated in each well of a 48-well tissue culture plate, following the method described in Example 4 (FIG. 7A, step 1), to create a high throughput culture system for testing drug effects on atherosclerosis. (2) The VSAs were divided into two groups: treated and untreated. (3) The treated group was treated with rosuvastatin (10 uM) or sirolimus (10 nM) by dilution of the stock solution into the “culture medium 7” on day 0 (FIG. 7B, step 2). (4) The VSAs, both treated and untreated, were co-cultured for 10 days with a fresh culture medium 7 with monocytes added on day 3 and day 7, respectively. (5) BODIPY staining was used to quantify foam cell formation: On day 10, a 10 mM BODIPY stock solution was prepared by dissolving in DMSO and stored at −20° C. Before the experiment, a 100 times diluted working solution was prepared from the stock solution using PBS. The VSAs were gently washed with PBS, then BODIPY was added, incubated in the dark for 30 min, imaged immediately using a microscope, and quantified at ex/em 485 nm/520 nm.
Experimental: (1) Fabrication of VSA high throughput culture systems: the large-scale VSA high throughput culture system was achieved by fabricating individual VSAs in each well of the 48-well tissue culture plate, following the same method described in Example 4 (FIG. 7A, step 1). (2) Divide the VSAs into two groups. (3) Treatment of VSAs in one group with curcumin (200 uM) or colchicine (100 nM) by dilution of the stock solution into the “culture medium 7” containing monocytes on day 0 (FIG. 7B, step 2). (4) The VSAs, treated or untreated, were co-cultured for 10 days. A fresh culture medium 7 was added to the co-culture system on day 3 and day 7, respectively. (5) BODIPY staining: On day 10, 10 mM BODIPY stock solution was prepared by dissolving in DMSO and stored at −20° C. Before the experiment, 100 times diluted working solution was prepared from stock solution using PBS. Then, the VSAs treated or untreated with curcumin (200 uM), and colchicine (100 nM) were gently washed with PBS, then BODIPY was added and incubated in the dark.
Experimental: (1) Fabrication of VSA high throughput culture systems: the large-scale VSA high throughput culture system was achieved by fabricating individual VSAs in each well of the 48-well tissue culture plate, following the same method described in Example 4 (FIG. 7A, step 1). (2) Divide the VSAs into two groups. (3) Treatment of VSAs in one group with free miR-146a (600 nM) by dilution of the stock solution into the culture medium 7 on day 0 (FIG. 7B, step 2). (4) The VSAs, treated or untreated, were co-cultured for 10 days. […]

[3] = system: cytokine secretion of VSAs; assay: VSA cytokine assay (ELISA of supernatant); remark: listed apart in the source
[4] = system: atherosclerosis-related gene expression of VSAs; assay: VSA gene assay (qRT-PCR)
Method: Experimental: To create a large-scale VSA high throughput culture system, individual VSAs were fabricated in each well of a 48-well tissue culture plate using the method described in Example 4 (FIG. 7A, step 1). The VSAs were then divided into two groups. One group was treated with rosuvastatin (10 uM) and sirolimus (10 nM) by diluting the stock solution into the “culture medium 7” containing monocytes on day 0 (FIG. 7B, step 2). The treated and untreated VSAs were co-cultured for 10 days with fresh culture medium 7 with monocytes added on day 3 and day 7, respectively. On day 10, RNA was extracted using the TRIzol™ reagent (Invitrogen) and purified using the Direct-Zol™ RNA Miniprep Plus kit following the protocol (Zymo Research). EDTA was added before phase separation to bind the calcium and help disintegrate the nanomatrix VSAs. The upper transparent aqueous phase was collected and RNA was suspended in nuclease-free water. The concentration and purity of RNA for each sample were determined using an ND-1000 UV spectrophotometer (Nanodrop). Complementary DNA was synthesized using 50 ng of RNA and reverse transcribed in a 2720 Thermo Cycler (Applied Biosystems) using a Verso cDNA Synthesis Kit (Thermo Fisher) according to the manufacturer's protocol. Samples were prepared in a 96-well PCR plate using the TaqMan Master Mix protocol. Each sample consisted of 2 μL of cDNA solution, 10 μL of 2× master mix, 7 μL of RNA-free water, and 1 μL of gene primer from a TaqMan Gene Expression Assay kit (Applied Biosytems). The PCR plate was run in a LightCycler 480 (Roche Life Science) for the following cycles: pre-incubation at 50° C. for 2 minutes and 95° C. for 10 min; amplification for 45 cycles, at 95° C. for 15 seconds, and 60° C. for 1 minute during each cycle; melting at 95° C. for 5 seconds and 65° C. for 1 minute, and cooling at 40° C. for 30 seconds.
Experimental: (1) Fabrication of VSA high throughput culture systems: the large-scale VSA high throughput culture system was achieved by fabricating individual VSAs in each well of the 48-well tissue culture plate, following the same method described in Example 4 (FIG. 7A, step 1). (2) Divide the VSAs into two groups. (3) Treatment of VSAs in one group with curcumin (200 uM) or colchicine (100 nM) by dilution of the stock solution into the “culture medium 7” containing monocytes on day 0 (FIG. 7B, step 2). (4) The VSAs, treated or untreated, were co-cultured for 10 days. A fresh culture medium 7 with monocytes was added to the co-culture system on day 3 and day 7, respectively. (5) RNA extraction and real-time qRT-PCR: On day 10, before phase separation, EDTA (Ethylenediaminetetraacetic acid) was added to bind the calcium and help disintegrate the nanomatrix VSAs. For phase separation, TRIzol™ reagent was added to the samples (>9 times of the sample volume) and incubated for 5 min. Then chloroform was added, mixed by shaking, and centrifuged (11,600 g, 15 min, 4° C.) to obtain phase separation. The upper transparent aqueous phase was collected and purified using the Direct-Zol™ RNA Miniprep Plus kit following the protocol. RNA was suspended in nuclease-free water, and an ND-1000 UV spectrophotometer was used to quantify the concentration and purity of RNA for each sample. Complementary DNA was then synthesized using 50 ng of RNA, which was reverse transcribed in a 2720 Thermo Cycler (Applied Biosystems) using a Verso cDNA Synthesis Kit according to the manufacturer's protocol. Samples were prepared in a 96-well PCR plate using the TaqMan Master Mix protocol. Each sample consisted of 2 μL of cDNA solution, 10 μL of 2× master mix, 7 μL of RNA-free water, and 1 μL of gene primer from a TaqMan Gene Expression Assay kit. […]

[5] = colchicine 100 nM, day 10, vs. control
[6] = rosuvastatin 10 uM, day 10, vs. control
[7] = rosuvastatin 10 uM, day 10, compared to the control
[8] = sirolimus 10 nM, day 10, of the control group
[9] = sirolimus 10 nM, day 10, relative to the control
[10] = curcumin 200 uM, day 10, vs. control

COc1cc2c(c(OC)c1OC)-c1ccc(OC)c(=O)cc1[C@@H](NC(C)=O)CC2 [colchicine]
IL-1α production ([1]; colchicine 100 nM, day 10): 71.31±5.84%
IL-4 production [1, 5]: 1.39±0.14 fold
IL-8 production [1, 5]: 42.57±1.80%
foam cell generation (BODIPY) ([2]; colchicine 100 nM): 50.86±4.57%
IFN-γ production [3, 5]: 61.95±7.79%
MCP-1 production [3, 5]: 26.31±1.77%
TNF-α production [3, 5]: 53.16±7.92%
COL3A1 gene expression [4, 5]: 8.93±1.30%
MMP-2 gene expression [4, 5]: 6.36±1.44%
PECAM-1 gene expression [4, 5]: 3.35±0.68 fold

CC(C)c1nc(N(C)S(C)(=O)=O)nc(-c2ccc(F)cc2)c1/C=C/[C@@H](O)C[C@@H](O)CC(=O)O [rosuvastatin]
IFN-γ production [1, 6]: 44.03±3.20%
IL-1α production [1, 6]: 66.78±6.52%
IL-6 production [1, 6]: 71.50±4.34%
TNF-α production [1, 6]: 39.69±5.53%
foam cell formation (BODIPY) ([2]; rosuvastatin 10 uM): 50.77±8.32%
IL-10 secretion ([3]; rosuvastatin 10 uM, day 10, compared with the control): 2.10±0.50 fold
IL-8 production [3, 6]: 48.64±6.17%
MMP-2 gene expression [4, 7]: 4.46±1.75%
VEGF-A gene expression [4, 7]: significantly lower
IL-6 gene expression ([4]; rosuvastatin 10 uM, day 10, of control): 5.20±0.38%
COL17A1 gene expression [4, 6]: 127.03±35.49 fold
PECAM-1 gene expression [4, 6]: 146.76±44.63 fold

CO[C@H]1C[C@@H]2CC[C@@H](C)[C@@](O)(O2)C(=O)C(=O)N2CCCC[C@H]2C(=O)O[C@H]([C@H](C)C[C@@H]2CC[C@@H](O)[C@H](OC)C2)CC(=O)[C@H](C)/C=C(\C)[C@@H](O)[C@@H](OC)C(=O)[C@H](C)C[C@H](C)/C=C/C=C/C=C/1C [sirolimus]
foam cell formation (BODIPY) ([2]; sirolimus 10 nM): 42.73±10.62%
IFN-γ production [3, 8]: 43.64±17.04%
MCP-1 production [3, 8]: 22.76±2.56%
TNF-α production [3, 8]: 40.67±6.42%
IL-4 secretion [3, 9]: 6.42±3.59 fold
IL-13 secretion [3, 9]: 1.67±0.59 fold

COc1cc(/C=C/C(=O)CC(=O)/C=C/c2ccc(O)c(OC)c2)ccc1O [curcumin]
IL-1α production [1, 10]: 80.58±4.91%
IL-10 production [1, 10]: 2.10±0.29 fold
foam cell generation (BODIPY) ([2]; curcumin 200 uM): 31.23±5.68%
IL-8 production [3, 10]: 40.90±5.72%
MCP-1 production [3, 10]: 76.87±3.35%
MMP-2 gene expression [4, 10]: 39.22±7.14%
PECAM-1 gene expression [4, 10]: 29.71±5.68%
VEGF-A gene expression [4, 10]: 38.01±5.68%

Source: patent US20250115874A1, “Compositions And Methods For Making And Using Atherosclerotic Nanomatrix Vascular Sheets” (UAB RESEARCH FOUNDATION, priority 2023, published 2025)
